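Cells were grown in 96-well plates and exposed to each compound for 48 hours at five concentrations; endpoints were interpolated linearly between bracketing concentrations, or set to the highest concentration if not reached. GI50 = concentration required for 50% inhibition of growth.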 Active and inactive are the calls of the source. Cut-off read from the data, not from the text of the source: active = GI50 up to about 1.1 µM and inactive = higher.
Legend:
Experiment in all cases: growth of human tumour cells (NCI), 48 h
[1] = test system: CAKI-1
[2] = test system: CCRF-CEM
[3] = test system: COLO 205
[4] = test system: HCT-15
[5] = test system: HOP-62
[6] = test system: K562
[7] = test system: M14
[8] = test system: MOLT-4
[9] = test system: NCI-H460
[10] = test system: OVCAR-5
[11] = test system: OVCAR-8
[12] = test system: SF-295
[13] = test system: SW-620
[14] = test system: SNB-19

Structure (SMILES) | GI50 [1] | GI50 [2] | GI50 [3] | GI50 [4] [µM] | GI50 [5] | GI50 [6] | GI50 [7] | GI50 [8] | GI50 [9] | GI50 [10] | GI50 [11] | GI50 [12] | GI50 [13] | GI50 [14]
CCOC(=O)/C=C/c1ccccn1 | > 100 µM (inactive) | > 100 µM (inactive) | > 100 µM (inactive) | > 100 | > 100 µM (inactive) | > 100 µM (inactive) | > 100 µM (inactive) | > 100 µM (inactive) | > 100 µM (inactive) | > 100 µM (inactive) | > 100 µM (inactive) | > 100 µM (inactive) | > 100 µM (inactive) | 
CN(C)NC(=S)NC12CC3CC(CC(C3)C1)C2 | > 100 µM (inactive) | > 100 µM (inactive) | > 100 µM (inactive) | > 100 | > 100 µM (inactive) | > 100 µM (inactive) | > 100 µM (inactive) | > 100 µM (inactive) | > 100 µM (inactive) | > 100 µM (inactive) | > 100 µM (inactive) | > 100 µM (inactive) | > 100 µM (inactive) | > 100 µM (inactive)
CCOC1C(Br)Cn2c(=O)c3cc4ccccc4cc3c(=O)n2C1C (stereo not given) | 55.1 µM (inactive) | 50.1 µM (inactive) | 56.6 µM (inactive) | 43.6 | > 100 µM (inactive) | 37.6 µM (inactive) | 42.5 µM (inactive) | 29.4 µM (inactive) | 40.3 µM (inactive) | > 100 µM (inactive) | > 100 µM (inactive) | 71.8 µM (inactive) | 91.8 µM (inactive) | > 100 µM (inactive)
O=C1CCCc2c(O)ccc(O)c21 |  | 19.1 µM (inactive) | > 100 µM (inactive) | > 100 | > 100 µM (inactive) | 35.9 µM (inactive) | > 100 µM (inactive) | 27.9 µM (inactive) | > 100 µM (inactive) | > 100 µM (inactive) | > 100 µM (inactive) | > 100 µM (inactive) | 61.2 µM (inactive) | > 100 µM (inactive)
COc1cccc(C=O)c1[O-].COc1cccc(C=O)c1[O-].[Zn+2] |  | 28.9 µM (inactive) | > 100 µM (inactive) | 38 | 46.9 µM (inactive) | 55.3 µM (inactive) | 36.3 µM (inactive) | 33.8 µM (inactive) | 42.1 µM (inactive) | 53.7 µM (inactive) | 43.8 µM (inactive) | 23.3 µM (inactive) | 56.1 µM (inactive) | > 100 µM (inactive)
O=C1CCSC2=C1SCc1sccc12 | > 100 µM (inactive) | > 100 µM (inactive) | > 100 µM (inactive) | > 100 | > 100 µM (inactive) | > 100 µM (inactive) | > 100 µM (inactive) | > 100 µM (inactive) | > 100 µM (inactive) | > 100 µM (inactive) | > 100 µM (inactive) | > 100 µM (inactive) | > 100 µM (inactive) | > 100 µM (inactive)
COc1ccc2c(c1)CCc1cnn(C3OC(COC(C)=O)C(OC(C)=O)C(OC(C)=O)C3OC(C)=O)c1-2 (stereo not given) | 76.2 µM (inactive) | 15 µM (inactive) | 84.7 µM (inactive) | 38.2 | > 100 µM (inactive) | 14.5 µM (inactive) | 56 µM (inactive) | 29.2 µM (inactive) | > 100 µM (inactive) | > 100 µM (inactive) | > 100 µM (inactive) | > 100 µM (inactive) | 18.4 µM (inactive) | > 100 µM (inactive)
CCOc1cc2c(cnc3c4cc(OC)c(OC)cc4ccc23)cc1OC | > 100 µM (inactive) | > 100 µM (inactive) | > 100 µM (inactive) | > 100 | > 100 µM (inactive) | > 100 µM (inactive) | > 100 µM (inactive) | > 100 µM (inactive) | > 100 µM (inactive) | > 100 µM (inactive) | > 100 µM (inactive) | > 100 µM (inactive) | > 100 µM (inactive) | > 100 µM (inactive)
CCOC(=O)[C@H]1CSC[C@@H](C(=O)OC)N1 | > 100 µM (inactive) | > 100 µM (inactive) | > 100 µM (inactive) | > 100 | > 100 µM (inactive) | > 100 µM (inactive) | > 100 µM (inactive) | > 100 µM (inactive) | > 100 µM (inactive) | > 100 µM (inactive) | > 100 µM (inactive) | > 100 µM (inactive) | > 100 µM (inactive) | > 100 µM (inactive)
CC(=O)Nc1ccc(/C=C2\N=C(c3ccccc3)OC2=O)cc1 |  | 33.1 µM (inactive) | > 100 µM (inactive) | 55.7 | > 100 µM (inactive) | > 100 µM (inactive) | > 100 µM (inactive) | 87.5 µM (inactive) | 68.5 µM (inactive) | > 100 µM (inactive) | 6.32 µM (inactive) | 65.2 µM (inactive) | > 100 µM (inactive) | > 100 µM (inactive)
CN(N=O)C(=O)ON1C(=O)CCC1=O | > 100 µM (inactive) | > 100 µM (inactive) |  | > 100 | > 100 µM (inactive) | > 100 µM (inactive) | > 100 µM (inactive) | > 100 µM (inactive) | 47.8 µM (inactive) | > 100 µM (inactive) | > 100 µM (inactive) | > 10 µM (inactive) | > 100 µM (inactive) | > 100 µM (inactive)
Clc1ccc(C2=NOC(C3CCCCC3)C2)cc1 (stereo not given) |  | > 100 µM (inactive) | > 100 µM (inactive) | > 100 | > 100 µM (inactive) | > 100 µM (inactive) | > 100 µM (inactive) | > 100 µM (inactive) | > 100 µM (inactive) | > 100 µM (inactive) | > 100 µM (inactive) | > 100 µM (inactive) | > 100 µM (inactive) | 
O=C1CCCCC1C1(O)C(=O)Nc2cc(F)ccc21 (stereo not given) | > 100 µM (inactive) | > 100 µM (inactive) | > 100 µM (inactive) | > 100 | > 100 µM (inactive) | > 100 µM (inactive) | > 100 µM (inactive) | > 100 µM (inactive) | > 100 µM (inactive) | > 100 µM (inactive) | > 100 µM (inactive) | > 100 µM (inactive) | > 100 µM (inactive) | > 100 µM (inactive)
O=c1cc(-c2ccccc2)[nH]c2c(F)ccc(F)c12 | 56.6 µM (inactive) | > 100 µM (inactive) | 48.1 µM (inactive) | 26.7 | 56 µM (inactive) | 30.3 µM (inactive) | 35.4 µM (inactive) | 46.2 µM (inactive) | 32.5 µM (inactive) | 43.9 µM (inactive) | 82 µM (inactive) | 33 µM (inactive) | 35.3 µM (inactive) | 
CCOC(=O)C(C[Si](C)(C)C)P(=O)(OCC)OCC (stereo not given) | > 100 µM (inactive) | > 100 µM (inactive) | > 100 µM (inactive) | > 100 | > 100 µM (inactive) | > 100 µM (inactive) | > 100 µM (inactive) | > 100 µM (inactive) | > 100 µM (inactive) | > 100 µM (inactive) | > 100 µM (inactive) | > 100 µM (inactive) | > 100 µM (inactive) | 
COc1cc2cc3c4c(cc(OC)c(OC)c4c2cc1OC)CCN3C(=O)OCCN1CCNCC1 | 15 µM (inactive) | 18.4 µM (inactive) | 8.22 µM (inactive) | 15.5 | 17.1 µM (inactive) | 12.6 µM (inactive) | 14.7 µM (inactive) | 16.1 µM (inactive) | 13.5 µM (inactive) | 18 µM (inactive) | 15.9 µM (inactive) | 15 µM (inactive) | 14.9 µM (inactive) | 21.9 µM (inactive)
CCCC(=O)CC(C)C(=O)C(=O)NC12CC3CC(CC(C3)C1)C2 (stereo not given) | > 100 µM (inactive) | > 100 µM (inactive) | > 100 µM (inactive) | > 100 | > 100 µM (inactive) | > 100 µM (inactive) | > 100 µM (inactive) | > 100 µM (inactive) | > 100 µM (inactive) | > 100 µM (inactive) | > 100 µM (inactive) | > 100 µM (inactive) | > 100 µM (inactive) | > 100 µM (inactive)
N#CC1C[C@@H]2CC3(CCC2CN1C(=O)c1ccccc1)OCCO3 (stereo not given in full) |  | > 100 µM (inactive) | > 100 µM (inactive) | > 100 | > 100 µM (inactive) | > 100 µM (inactive) | > 100 µM (inactive) | > 100 µM (inactive) | > 100 µM (inactive) | > 100 µM (inactive) | > 100 µM (inactive) | > 100 µM (inactive) | > 100 µM (inactive) | > 100 µM (inactive)
NC1=NNC(=O)c2nnc3c(C(=O)O)cnn3c2S1 | > 100 µM (inactive) | 10 µM (inactive) | > 100 µM (inactive) |  | > 100 µM (inactive) | > 100 µM (inactive) | > 100 µM (inactive) | > 100 µM (inactive) |  | > 100 µM (inactive) | > 100 µM (inactive) | > 100 µM (inactive) | > 100 µM (inactive) | > 100 µM (inactive)
O=C1CC(S(=O)(=O)O)C=C1Nc1cccc(Cl)c1 (stereo not given) | > 100 µM (inactive) | > 100 µM (inactive) | > 100 µM (inactive) |  | > 100 µM (inactive) | > 100 µM (inactive) | > 100 µM (inactive) | > 100 µM (inactive) | > 100 µM (inactive) | > 100 µM (inactive) | > 100 µM (inactive) | > 100 µM (inactive) | > 100 µM (inactive) | > 100 µM (inactive)
O=C(CP(=O)(O)O)c1cccs1 | > 100 µM (inactive) | > 100 µM (inactive) | > 100 µM (inactive) | > 100 | > 100 µM (inactive) | > 100 µM (inactive) | > 100 µM (inactive) |  | > 100 µM (inactive) | > 100 µM (inactive) | > 100 µM (inactive) | > 100 µM (inactive) | > 100 µM (inactive) | > 100 µM (inactive)

Reference: ChEMBL document CHEMBL1201862, “PubChem BioAssay data set” (2004)
